{"source": "paper PMC3530638", "about": "(Biochimica et biophysica acta, 2012)", "origin": "cited, not measured here", "test_system": "B. anthracis", "settings": "cited from earlier work"}
{"smiles": "CCCC1c2ccccc2C=NN1C(=O)/C=C/c1cc(Cc2cnc(N)nc2N)cc(OC)c1OC", "note": "(stereo not shown) [n-propyl, (E)-3-[5-(2,4-diaminopyrimidin-5-ylmethyl)-2,3-dimethoxyphenyl]-1-(1-propyl-1h-phthalazin-2-yl)propenone]", "values": [{"measurement": "MIC", "result": "1 to 3", "unit": "µg/mL"}]}
